Experimental data published in US20080020981A1, “Non-nucleoside reverse transcriptase inhibitors” (Roche Palo Alto LLC, priority 2006, published 2008).
Structures can show the parent of a compound that is named as a salt. Where two headings read alike, the source gives them in different places.

Tests used:
[1] = target: T1, HIV-RT enzyme (HIV-1 reverse transcriptase) (Human immunodeficiency virus type 1 group M subtype B, UniProt P03366); experiment: HIV-1 Reverse Transcriptase Assay Inhibitor IC50 Determination (RNA-dependent DNA polymerase activity, SPA); type: biochemical
T1 construct: Reactions were initiated by the addition of 30 μl of the HIV-RT enzyme
Method: HIV-1 Reverse Transcriptase Assay Inhibitor IC50 Determination
RNA-dependent DNA polymerase activity was measured using a biotinylated primer oligonucleotide and tritiated dNTP substrate. Newly synthesized DNA was quantified by capturing the biotinylated primer molecules on streptavidin coated Scintillation Proximity Assay (SPA) beads (Amersham). […] The biotinylated DNA primer was obtained from the Integrated DNA Technologies Inc. and the RNA template was synthesized by Dharmacon. […] Reactions were initiated by the addition of 30 μl of the HIV-RT enzyme (final concentrations of […]). Protein concentrations were adjusted to provide linear product formation for at least 30 min of incubation. After incubation at 30° for 30 min, the reaction was quenched by addition of 50 μl of 200 mM EDTA (pH 8.0) and 2 mg/ml SA-PVT SPA beads (Amersham, RPNQ0009, reconstituted in 20 mM Tris-HCl, pH 8.0, 100 mM EDTA and 1% BSA). The beads were left to settle overnight and the SPA signals were counted in a 96-well top counter-NXT (Packard). IC50 values were obtained by sigmoidal regression analysis using GraphPad Prism 3.0 (GraphPad Software, Inc.).

[2] = RNA-dependent DNA polymerase activity, SPA, 30 min at 30°, read-out: HIV-RT IC50

| Molecule | IC50 [1, 2] [nM] | melting point [°C] | IC50 [1] [nM] |
| --- | --- | --- | --- |
| 2-[3-(3-Chloro-5-cyano-phenoxy)-4-cyclopropyl-2-fluoro-phenoxy]-N-(2-chloro-4-sulfamoyl-phenyl)-acetamide [I-9] | 7.7 | – | – |
| 2-[4-Bromo-3-(3-chloro-5-cyano-phenoxy)-2-fluoro-phenoxy]-N-[2-chloro-4-(2,4-dioxo-imidazolidin-1-yl)-phenyl]-acetamide [I-30] | 15.5 | – | – |
| 2-[4-Chloro-3-(3,5-dicyano-phenoxy)-2-fluoro-phenoxy]-N-(2-methyl-4-sulfamoyl-phenyl)-acetamide [I-14] | 6.4 | – | – |
| CCC(=O)NS(=O)(=O)c1ccc(NC(=O)COc2ccc(Br)c(Oc3cc(Cl)cc(C#N)c3)c2F)c(Cl)c1 (as salt: Na) [I-23] | – | 261 to 264 | – |
| CCC(=O)NS(=O)(=O)c1ccc(NC(=O)COc2ccc(Br)c(Oc3cc(Cl)cc(C#N)c3)c2F)c(C)c1 (as salt: Na) [I-24] | – | 268.1 to 270 | – |
| N#Cc1cc(Cl)cc(Oc2c(Cl)ccc(OCC(=O)Nc3ccc(S(N)(=O)=O)cc3Cl)c2F)c1 [I-1, 2-[4-Chloro-3-(3-chloro-5-cyano-phenoxy)-2-fluoro-phenoxy]-N-(2-chloro-4-sulfamoyl-phenyl)-acetamide] | 16.2 | 233.3 to 247.6 | – |
| Cc1cc(S(N)(=O)=O)ccc1NC(=O)COc1ccc(Cl)c(Oc2cc(Cl)cc(C#N)c2)c1F [I-2] | 12.8 | 209.9 to 212 | – |
| Cc1cc(S(N)(=O)=O)ccc1NC(=O)COc1ccc(Br)c(Oc2cc(Cl)cc(C#N)c2)c1F [I-4, 2-[4-Bromo-3-(3-chloro-5-cyano-phenoxy)-2-fluoro-phenoxy]-N-(2-methyl-4-sulfamoyl-phenyl)-acetamide] | 6.5 | 226 to 228.8 | – |
| N#Cc1cc(Cl)cc(Oc2c(Br)ccc(OCC(=O)Nc3ccc(S(N)(=O)=O)cc3Cl)c2F)c1 [I-5] | 18.7 | 250.9 to 252.3 | – |
| CCc1ccc(OCC(=O)Nc2ccc(S(N)(=O)=O)cc2C)c(F)c1Oc1cc(Cl)cc(C#N)c1 [I-6, 2-[3-(3-Chloro-5-cyano-phenoxy)-4-ethyl-2-fluoro-phenoxy]-N-(2-methyl-4-sulfamoyl-phenyl)-acetamide] | 8.4 | 188 to 189.6 | – |
| CCc1ccc(OCC(=O)Nc2ccc(S(N)(=O)=O)cc2Cl)c(F)c1Oc1cc(Cl)cc(C#N)c1 [I-7] | > 10000 | – | – |
| N#Cc1cc(Cl)cc(Oc2c(C3CC3)ccc(OCC(=O)Nc3ccc(S(N)(=O)=O)cc3Cl)c2F)c1 [I-8] | 18.3 | 210 to 211 | – |
| N#Cc1cc(Cl)cc(Oc2cc(OCC(=O)Nc3ccc(S(N)(=O)=O)cc3Cl)ccc2Cl)c1 [I-10] | 7.4 | 217 to 219 | – |
| COc1cc(C#N)cc(Oc2c(Cl)ccc(OCC(=O)Nc3ccc(S(N)(=O)=O)cc3C)c2F)c1 [I-11] | 3.1 | 122 to 123.2 | – |
| COc1cc(C#N)cc(Oc2c(Cl)ccc(OCC(=O)Nc3ccc(S(N)(=O)=O)cc3Cl)c2F)c1 [I-12] | 8.2 | 211 to 212 | – |
| Cc1cc(S(N)(=O)=O)ccc1NC(=O)COc1ccc(Cl)c(Oc2cc(C#N)cc(C#N)c2)c1F [I-13] | 3.8 | 264.5 to 265.2 | – |
| Cc1cc(S(N)(=O)=O)ccc1NC(=O)COc1ccc(Cl)c(Oc2cc(Cl)cc(C#N)c2)c1 [I-15, 2-[4-Chloro-3-(3-chloro-5-cyano-phenoxy)-phenoxy]-N-(2-methyl-4-sulfamoyl-phenyl)-acetamide] | 6.5 | – | – |
| COc1cc(C#N)cc(Oc2c(Br)ccc(OCC(=O)Nc3ccc(S(N)(=O)=O)cc3C)c2F)c1 [I-16] | 5.1 | 220 to 223.3 | – |
| COc1cc(C#N)cc(Oc2c(Br)ccc(OCC(=O)Nc3ccc(S(N)(=O)=O)cc3Cl)c2F)c1 [I-17] | 12.6 | 213.9 to 217.9 | – |
| Cc1cc(S(N)(=O)=O)ccc1NC(=O)COc1ccc(Cl)c(Oc2cc(Br)cc(C#N)c2)c1F [I-18] | 6.6 | 234.9 to 236.6 | – |
| N#Cc1cc(Br)cc(Oc2c(Cl)ccc(OCC(=O)Nc3ccc(S(N)(=O)=O)cc3Cl)c2F)c1 [I-19] | 14.9 | 242.2 to 244.9 | – |
| CCc1cc(C#N)cc(Oc2c(Cl)ccc(OCC(=O)Nc3ccc(S(N)(=O)=O)cc3Cl)c2F)c1 [I-20, 2-[4-Chloro-3-(3-cyano-5-ethyl-phenoxy)-2-fluoro-phenoxy]-N-(2-chloro-4-sulfamoyl-phenyl)-acetamide] | 31.7 | – | – |
| N#Cc1cc(C#N)cc(Oc2c(Br)ccc(OCC(=O)Nc3ccc(S(N)(=O)=O)cc3Cl)c2F)c1 [I-21] | 19.1 | 255 to 257 | – |
| CCC(=O)NS(=O)(=O)c1ccc(NC(=O)COc2ccc(Br)c(Oc3cc(Cl)cc(C#N)c3)c2F)c(Cl)c1 [I-23] | 4.8 | – | – |
| CCC(=O)NS(=O)(=O)c1ccc(NC(=O)COc2ccc(Br)c(Oc3cc(Cl)cc(C#N)c3)c2F)c(C)c1 [I-24] | 5.7 | – | – |
| N#Cc1cc(Oc2c(Cl)ccc(OCC(=O)Nc3ccc(S(N)(=O)=O)cc3Cl)c2F)cc(C2CC2)c1 [I-26] | 66.5 | 219 to 221 | – |
| N#Cc1cc(Cl)cc(Oc2c(Cl)ccc(OCC(=O)Nc3ccc(C(=O)O)cc3Cl)c2F)c1 [I-27, 3-Chloro-4-{2-[4-chloro-3-(3-chloro-5-cyano-phenoxy)-2-fluoro-phenoxy]-acetylamino}-benzoic acid] | 6.1 | – | – |
| Cc1cc(C(N)=O)ccc1NC(=O)COc1ccc(Br)c(Oc2cc(Cl)cc(C#N)c2)c1F [I-28, 4-{2-[4-Bromo-3-(3-chloro-5-cyano-phenoxy)-2-fluoro-phenoxy]-acetylamino}-3-methyl-benzamide] | 6.9 | 250.6 to 252.5 | – |
| CC(C)(O)C#Cc1ccc(NC(=O)COc2ccc(Br)c(Oc3cc(Cl)cc(C#N)c3)c2F)c(Cl)c1 [I-31, 2-[4-Bromo-3-(3-chloro-5-cyano-phenoxy)-2-fluoro-phenoxy]-N-[2-chloro-4-(3-hydroxy-3-methyl-but-1-ynyl)-phenyl]-acetamide] | – | – | 82.1 |
| CC(C)(N)C#Cc1ccc(NC(=O)COc2ccc(Cl)c(Oc3cc(Cl)cc(C#N)c3)c2F)c(Cl)c1 [I-32, N-[4-(3-Amino-3-methyl-but-1-ynyl)-2-chloro-phenyl]-2-[4-chloro-3-(3-chloro-5-cyano-phenoxy)-2-fluoro-phenoxy]-acetamide] | 21.4 | – | – |
